Assay results reported in US8183237B2, “Benzenesulfonanilide compounds suitable for treating disorders that respond to modulation of the serotonin 5-HT6 receptor” (Abbott Laboratories, priority 2009, dated 2012).
Structures can show the parent of a compound that is named as a salt. Where two headings read alike, the source gives them in different places.

Columns and labels:
[1] = target: T1, h-5-HT6 receptor (Homo sapiens, UniProt P50406); assay: 5-HT6 receptor binding assay (displacement of [3H]-LSD)
T1 construct: expressed in transfected cells; host or cells: HEK293
Description: Displacement of radioligands binding to the following cloned human receptors
(§1) 1. Preparation of Membranes by Ultrasonic Treatment and Differential Centrifugation
Cells from stable clonal cell lines expressing the corresponding receptor (5-HT6, α1-adrenergic, dopamine D2 or histamine H1 receptors) were washed with PBS (w/o Ca^++, Mg^++) and harvested in PBS with 0.02% EDTA. The cells were collected by centrifugation at 500 g for 10 min. at 4° C., washed with PBS and centrifuged (500 g, 10 min. 4° C.). The pellets were stored at −80° C. until use. For membrane preparation, the thawed cell pellet was resuspended in ice-cold sucrose buffer (0.25 M sucrose, 10 mM Hepes (pH 7.4), 1 mM Phenylmethylsulfonyl fluoride (PMSF) in DMSO, 5 μg/ml Pepstatin-A, 3 mM EDTA, 0.025% Bacitracin) and homogenized with a Branson Sonifier W-250 (Settings: Timer 4; Output Control 3; Duty Cycle constant; 2 to 3 cycles). Cell disruption was checked with the aid of a microscope. Remaining unbroken cells were pelleted at 1.000 g for 10 min. at 4° C. The sucrose buffer supernatant was then centrifuged at 60.000 g for 1 h at 4° C. (Beckman Ultrazentrifuge XL 80). The pellet was resuspended in 30 ml ice-cold Tris buffer (20 mM TRIS (pH 7.4), 5 μg/ml Pepstatin A, 0.1 mM PMSF, 3 mM EDTA) by pipetting through a 10 ml serological pipet and centrifuged for 1 h at 4° C. at 60.000 g. A final resuspension was performed in a small volume of ice-cold Tris buffer (see above) by pressing through a serological pipet followed by ultrasonic treatment with a Branson Sonifier W-250 (Settings: Timer 1; Output Control 3; Duty Cycle constant; 1 cycle). Protein concentration was determined (BCA-Kit; Pierce) and aliquots stored at −80° C. or in liquid nitrogen for long-term storage.
(§2) 2. Receptor Binding Experiments
All receptor binding experiments were carried out in the corresponding assay buffer in a total volume of 200 μl in the presence of various concentrations of test compound (10^−5 M to 10^−9 M, tenfold serial dilution, duplicate determinations). The assays were terminated by filtration on polyethylenimine (PEI 0.1% or 0.3%) presoaked Packard Unifilter Plates (GF/C or GF/B) with a Tomtec MachIII U 96 well-plate harvester. After the plates had been dried for 2 h at 55° C. in a drying chamber scintillation cocktail (BetaPlate Scint; PerkinElmer) was added. Radioactivity was measured in a Microbeta Trilux two hours after the addition of the scintillation mixture. Data derived from liquid scintillation counting were analysed by iterative non-linear regression analysis with the use of the Statistical Analysis System (SAS): a program similar to “LIGAND” as described by Munson and Rodbard (Analytical Biochemistry 107, 220-239 (1980).
a) 5-HT6 Receptor Binding Assay
HEK293 cells stably expressing the h-5-HT6 receptor (NCBI Reference Sequence XM 001435) were cultured in RPMI1640 medium supplemented with 25 mM HEPES, 10% fetal calf serum and 1-2 mM glutamine. The membrane preparation was performed as described in section 1. […] Non-specific binding was defined with 1 μM methiothepin. The binding reaction was carried out for 3.5 h at room temperature. […]
Data derived from liquid scintillation counting were analyzed by iterative non-linear regression analysis with the use of the Statistical Analysis System (SAS): a program similar to “LIGAND” as described by Munson and Rodbard (Anal. Biochem. 1980, 107, 220-239). […] IC50, nH and Ki values were expressed as geometrical mean.

[2] = target: T2, dopamine D2 receptor (Homo sapiens, UniProt P14416); assay: Dopamine D2 receptor binding assay (displacement of [125I]-iodospiperone); settings: saturation binding experiments, HEK293 D2 membranes
T2 construct: expressed in transfected cells; host or cells: HEK293
Description: as §1
The pellets were stored at −80° C. until use. […] (Beckman Ultrazentrifuge XL 80).
as §2
b) Dopamine D2 Receptor Binding Assay
Non-specific binding was defined with 1 μM haloperidol.

[3] = membranes of HEK293 cells stably expressing h-5-HT6 receptor, 1 nM [3H]-LSD, read-out: Ki (5HT6)

T1 sequence (P50406 whole entry): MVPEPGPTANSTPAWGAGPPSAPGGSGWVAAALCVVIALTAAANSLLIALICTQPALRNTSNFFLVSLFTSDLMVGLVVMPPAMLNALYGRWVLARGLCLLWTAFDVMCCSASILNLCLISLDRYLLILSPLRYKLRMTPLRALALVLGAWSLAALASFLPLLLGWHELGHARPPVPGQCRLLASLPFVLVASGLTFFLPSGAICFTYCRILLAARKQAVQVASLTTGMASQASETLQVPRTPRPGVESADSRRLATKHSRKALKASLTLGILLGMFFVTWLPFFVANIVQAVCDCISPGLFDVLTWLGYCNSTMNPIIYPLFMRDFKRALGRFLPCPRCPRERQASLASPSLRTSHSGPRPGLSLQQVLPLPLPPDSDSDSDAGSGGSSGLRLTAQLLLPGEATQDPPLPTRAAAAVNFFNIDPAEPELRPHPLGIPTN
T2 sequence (P14416 whole entry): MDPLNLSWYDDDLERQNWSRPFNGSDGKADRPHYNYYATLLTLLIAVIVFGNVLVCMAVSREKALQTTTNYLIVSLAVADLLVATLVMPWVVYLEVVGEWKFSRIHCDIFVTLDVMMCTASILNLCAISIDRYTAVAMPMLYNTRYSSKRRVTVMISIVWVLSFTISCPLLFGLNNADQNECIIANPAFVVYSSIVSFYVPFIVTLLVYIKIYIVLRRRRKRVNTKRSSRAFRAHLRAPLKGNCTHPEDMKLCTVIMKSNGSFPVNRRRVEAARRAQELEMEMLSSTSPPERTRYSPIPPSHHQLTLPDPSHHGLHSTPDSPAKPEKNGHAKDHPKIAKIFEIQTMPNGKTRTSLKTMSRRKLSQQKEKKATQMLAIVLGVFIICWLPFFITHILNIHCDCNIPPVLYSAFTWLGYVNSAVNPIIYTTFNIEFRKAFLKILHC

Compound	Ki [1, 3]	further results
Cc1ccc(NS(=O)(=O)c2cccc(OC(F)F)c2)cc1N1CCNCC1 [Example 1, 3-Difluoromethoxy-N-(4-methyl-3-piperazin-1-yl-phenyl)-benzenesulfonamide hydrochloride]		Ki [1]: < 20 nM
Cc1ccc(NS(=O)(=O)c2ccccc2OC(F)F)cc1N1CCCNCC1 [Example 2, N-(3-[1,4]Diazepan-1-yl-4-methyl-phenyl)-2-difluoromethoxy-benzenesulfonamide hydrochloride]	< 50 nM	
Cc1ccc(N(C)S(=O)(=O)c2cccc(OC(F)F)c2)cc1N1CCCNCC1 [Example 3, N-(3-[1,4]Diazepan-1-yl-4-methyl-phenyl)-3-difluoromethoxy-N-methyl-benzenesulfonamide hydrochloride]	< 250 nM	
Cc1ccc(NS(=O)(=O)c2cccc(OC(F)F)c2)cc1N1CCCNCC1 [Example 4, N-(3-[1,4]Diazepan-1-yl-4-methyl-phenyl)-3-difluoromethoxy-benzenesulfonamide hydrochloride]	< 20 nM	
Cc1ccc(NS(=O)(=O)c2ccccc2OC(F)F)cc1N1CCCN(C)CC1 [Example 5, 2-Difluoromethoxy-N-[4-methyl-3-(4-methyl-[1,4]diazepan-1-yl)-phenyl]-benzenesulfonamide hydrochloride]	< 20 nM	
iodospiperone [[^125I]-iodospiperone]		Kd [2]: 0.22 nM
